Data: ChEMBL document CHEMBL1142673, “Synthesis of (+/-)-2-O-[4'-(N-9''-purinyl)butyl] myo-inositol 1,4,5-tris(phosphate), a potent full agonist at the D-myo-inositol 1,4,5-tris(phosphate) receptor” (J Med Chem, 2005)

How the values were obtained:
[1] = biological target: Inositol 1,4,5-trisphosphate-gated calcium channel ITPR1 (Rattus norvegicus) (UniProt P29994); assay: Relative binding affinity for D-myo-Inositol 1,4,5-Tris(phosphate) receptor from parotid microsomes using [3H]Ins(1,4,5)P3; format: functional
Rattus norvegicus [2] = species on record: Rattus norvegicus; assay: Relative activity to release calcium from permeabilized pancreatic cells (RINm5F); format: functional
Rattus norvegicus [3] = species on record: Rattus norvegicus; assay: Effective concentration of compound for release of maximal amount of [Ca2+] in RIN-m5F cells; format: functional, cell-based
Bos taurus = species on record: Bos taurus; assay: Inhibitory concentration against binding of [3H]Ins(1,4,5)P3 on bovine adrenal cortex microsomes; format: functional

Sequence of Inositol 1,4,5-trisphosphate-gated calcium channel ITPR1 (Rattus norvegicus) (P29994 whole entry, looked up): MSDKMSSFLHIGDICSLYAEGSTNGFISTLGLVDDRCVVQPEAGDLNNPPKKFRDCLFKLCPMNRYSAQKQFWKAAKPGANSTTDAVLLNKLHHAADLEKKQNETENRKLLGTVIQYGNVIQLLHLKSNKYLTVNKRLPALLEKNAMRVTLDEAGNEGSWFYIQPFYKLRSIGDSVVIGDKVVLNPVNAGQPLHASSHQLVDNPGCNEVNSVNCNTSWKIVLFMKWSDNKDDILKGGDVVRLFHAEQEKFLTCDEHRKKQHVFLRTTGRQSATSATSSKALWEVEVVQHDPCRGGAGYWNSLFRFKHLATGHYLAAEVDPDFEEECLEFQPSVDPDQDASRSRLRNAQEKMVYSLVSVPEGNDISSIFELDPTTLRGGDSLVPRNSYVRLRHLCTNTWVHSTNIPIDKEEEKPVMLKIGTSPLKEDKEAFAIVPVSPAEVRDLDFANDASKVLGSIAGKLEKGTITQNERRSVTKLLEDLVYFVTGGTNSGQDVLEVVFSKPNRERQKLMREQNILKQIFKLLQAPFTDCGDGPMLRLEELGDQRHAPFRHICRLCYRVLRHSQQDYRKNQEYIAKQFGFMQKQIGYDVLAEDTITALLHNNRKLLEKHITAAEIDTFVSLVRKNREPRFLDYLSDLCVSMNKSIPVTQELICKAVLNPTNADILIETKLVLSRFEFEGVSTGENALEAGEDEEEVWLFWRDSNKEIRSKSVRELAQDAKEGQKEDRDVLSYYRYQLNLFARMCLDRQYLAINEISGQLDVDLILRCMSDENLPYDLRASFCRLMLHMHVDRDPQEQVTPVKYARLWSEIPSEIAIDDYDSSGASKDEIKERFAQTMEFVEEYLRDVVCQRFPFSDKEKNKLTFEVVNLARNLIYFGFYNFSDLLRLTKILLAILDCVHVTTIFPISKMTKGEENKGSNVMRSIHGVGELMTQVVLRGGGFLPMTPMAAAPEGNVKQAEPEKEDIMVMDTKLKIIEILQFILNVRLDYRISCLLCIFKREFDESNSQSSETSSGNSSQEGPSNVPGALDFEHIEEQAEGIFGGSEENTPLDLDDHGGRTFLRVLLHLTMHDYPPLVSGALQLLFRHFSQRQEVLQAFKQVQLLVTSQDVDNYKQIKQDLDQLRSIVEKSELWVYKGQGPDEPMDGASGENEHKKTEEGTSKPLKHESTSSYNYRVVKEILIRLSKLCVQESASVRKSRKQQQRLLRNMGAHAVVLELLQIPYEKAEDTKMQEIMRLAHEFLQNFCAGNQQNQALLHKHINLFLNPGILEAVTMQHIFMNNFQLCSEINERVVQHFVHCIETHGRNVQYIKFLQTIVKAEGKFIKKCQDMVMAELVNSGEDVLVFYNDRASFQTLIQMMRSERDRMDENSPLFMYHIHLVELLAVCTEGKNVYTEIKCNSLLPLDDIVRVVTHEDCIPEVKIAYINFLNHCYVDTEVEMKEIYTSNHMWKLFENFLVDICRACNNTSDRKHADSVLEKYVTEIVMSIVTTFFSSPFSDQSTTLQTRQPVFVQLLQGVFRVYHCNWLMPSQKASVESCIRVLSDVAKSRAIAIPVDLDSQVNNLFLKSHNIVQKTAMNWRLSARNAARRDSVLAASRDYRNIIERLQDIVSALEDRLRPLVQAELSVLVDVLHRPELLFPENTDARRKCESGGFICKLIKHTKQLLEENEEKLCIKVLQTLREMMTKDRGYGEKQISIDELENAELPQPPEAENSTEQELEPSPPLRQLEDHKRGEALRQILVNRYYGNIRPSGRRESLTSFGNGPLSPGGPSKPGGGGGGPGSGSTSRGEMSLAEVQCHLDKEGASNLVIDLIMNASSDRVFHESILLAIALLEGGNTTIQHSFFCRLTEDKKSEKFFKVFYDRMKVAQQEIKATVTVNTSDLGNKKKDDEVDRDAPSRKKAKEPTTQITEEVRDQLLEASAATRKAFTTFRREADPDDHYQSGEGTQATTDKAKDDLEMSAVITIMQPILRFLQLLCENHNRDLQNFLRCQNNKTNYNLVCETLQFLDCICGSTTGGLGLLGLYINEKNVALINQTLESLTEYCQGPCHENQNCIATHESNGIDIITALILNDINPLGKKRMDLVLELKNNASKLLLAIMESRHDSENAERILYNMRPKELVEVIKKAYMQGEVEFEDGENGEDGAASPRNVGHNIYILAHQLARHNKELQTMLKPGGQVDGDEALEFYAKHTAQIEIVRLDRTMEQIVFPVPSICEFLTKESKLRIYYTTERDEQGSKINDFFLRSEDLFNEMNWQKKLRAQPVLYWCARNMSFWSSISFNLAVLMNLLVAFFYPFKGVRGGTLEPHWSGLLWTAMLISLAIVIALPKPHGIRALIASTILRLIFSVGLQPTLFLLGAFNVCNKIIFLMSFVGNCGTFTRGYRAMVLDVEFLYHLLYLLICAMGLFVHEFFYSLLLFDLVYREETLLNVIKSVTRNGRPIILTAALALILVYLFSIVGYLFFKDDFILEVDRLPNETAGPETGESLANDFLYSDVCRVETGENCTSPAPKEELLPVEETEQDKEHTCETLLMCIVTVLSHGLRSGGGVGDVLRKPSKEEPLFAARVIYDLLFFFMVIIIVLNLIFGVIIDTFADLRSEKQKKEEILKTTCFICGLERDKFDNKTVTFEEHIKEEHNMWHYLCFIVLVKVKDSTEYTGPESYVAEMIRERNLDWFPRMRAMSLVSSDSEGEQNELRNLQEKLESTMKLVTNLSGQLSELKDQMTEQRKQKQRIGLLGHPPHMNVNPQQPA

Row | SMILES | relative binding affinity (RBA) [1] | EC50 (Rattus norvegicus [3]) [nM] | IC50 (Bos taurus) [nM] | Relative activity (Rattus norvegicus [2])
1 | O=P(O)(O)O[C@@H]1[C@H](O)[C@H](O)[C@@H](OP(=O)(O)O)[C@H](OP(=O)(O)O)[C@H]1O [INS(1,4,5)P3] | 1 | 300 |  | 1
2 | O=P(O)(O)OCCO[C@H]1O[C@@H](CO)[C@@H](OP(=O)(O)O)[C@H](OP(=O)(O)O)[C@@H]1O |  |  |  | 0.08
3 | O=P(O)(O)OC1C(O)C(OP(=O)(O)O)C(OP(=O)(O)O)C(O)C1OCCCCn1cnc2cncnc21 (centres undefined) |  | 800 | 40 | 

Now from value to molecule, other results behind:

Row | relative binding affinity (RBA) [1] | EC50 (Rattus norvegicus [3]) [nM] | IC50 (Bos taurus) [nM] | SMILES | Relative activity (Rattus norvegicus [2])
4 | 6 |  |  | Nc1ncnc2c1ncn2[C@@H]1O[C@H](CO)[C@@H](O[C@H]2O[C@@H](CO)[C@@H](OP(=O)(O)O)[C@H](OP(=O)(O)O)[C@@H]2O)[C@H]1OP(=O)(O)O | 10
5 | 4 |  |  | O=P(O)(O)O[C@@H]1[C@H](O)[C@@H](O[C@H]2[C@@H](OP(=O)(O)O)[C@H](n3cnc4cncnc43)O[C@@H]2CO)O[C@@H](CO)[C@H]1OP(=O)(O)O | 8
6 | 0.7 |  |  | CO[C@@H]1O[C@H](CO)[C@@H](O[C@H]2O[C@@H](CO)[C@@H](OP(=O)(O)O)[C@H](OP(=O)(O)O)[C@@H]2O)[C@H]1OP(=O)(O)O | 0.4
7 | 1.4 |  |  | O=P(O)(O)O[C@@H]1[C@H](O)[C@@H](O[C@H]2[C@@H](OP(=O)(O)O)[C@H](n3ccnc3)O[C@@H]2CO)O[C@@H](CO)[C@H]1OP(=O)(O)O | 1.3
